Source: paper PMC8474115 (Journal of Medicinal Chemistry, 2021)
Where “and” joins values, the source holds several entries; their conditions need not be identical. Identical values can stand only once. Counter-ions that a name gives are not always drawn. Like-named read-outs stand apart in the source and are kept apart here.

Legend:
5-HT3R = target: T1, 5-HT3R (Cavia porcellus, UniProt O70212); settings: for antagonist effect: percent inhibition of response to 5-HT 3 μM (contraction of guinea pig ileum); for functional classification at 5-HT3R: guinea pig ileum contraction
T1 sequence (O70212 20-490): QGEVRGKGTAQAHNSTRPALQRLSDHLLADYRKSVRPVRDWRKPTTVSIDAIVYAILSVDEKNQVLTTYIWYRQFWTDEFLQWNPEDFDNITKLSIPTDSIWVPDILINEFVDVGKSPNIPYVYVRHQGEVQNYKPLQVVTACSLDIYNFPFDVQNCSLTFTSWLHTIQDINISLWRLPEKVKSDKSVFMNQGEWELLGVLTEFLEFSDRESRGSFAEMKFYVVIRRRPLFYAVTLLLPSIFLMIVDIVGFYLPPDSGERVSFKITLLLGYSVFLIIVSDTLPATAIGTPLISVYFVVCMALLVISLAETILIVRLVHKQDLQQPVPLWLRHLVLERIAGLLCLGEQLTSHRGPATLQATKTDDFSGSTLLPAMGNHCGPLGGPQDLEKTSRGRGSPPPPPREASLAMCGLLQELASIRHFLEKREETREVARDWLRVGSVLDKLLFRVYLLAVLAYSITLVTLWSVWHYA
Experimental: Isolated guinea pig ileum was employed to test the affinity and the intrinsic activity of the investigated compounds for 5-HT3 receptors. […] A 15 cm ileum segment was excised from the small intestine of male guinea pigs and immersed into a Krebs solution (NaCl 120 mM, KCl 5.6 mM, MgCl2 2.2 mM, CaCl2 2.4 mM, NaHCO3 19 mM, glucose 10 mM). After the first 5 cm length closest to the ileocaecal junction had been discarded 2 cm-long fragments were cut. Each segment of the ileum was placed in a 20 mL chamber of tissue organ bath system (Tissue Organ Bath System – 750 TOBS, DMT, Denmark) filled with the Krebs solution at 37° C, pH 7.4, with constant oxygenation (O2/CO2, 19:1), fixed by the lower end to a rod and by the upper end to the force–displacement transducer. The preparation was allowed to stabilize in organ baths for 60 min under a resting tension of 0.5 g, washing every 15 min with fresh Krebs solution. After the equilibration period, a cumulative concentration–response curve was constructed in each tissue for 5-HT (10 nM – 10 μM) by the method of van Rossum.[64] […] Selected compounds were tested using an additional method. After establishment of the first 5-HT concentration–response curve, washing out of the tissue, and stabilization period, the same tissues were subsequently incubated with one of the concentrations of the tested compound for 15 min and the next cumulative concentration curve to 5-HT was obtained. Only one concentration of a studied compound was tested in each piece of tissue.

For `O=S(=O)(c1ccccc1)n1ccc2c(NC3CNC3)nc3ccccc3c21` (as salt: hydrochloride) [Compound 9, N-(Azetidin-3-yl)-1-(phenylsulfonyl)-1H-pyrrolo[3,2-c]quinolin-4-amine dihydrochloride], the melting point was 243 to 246 °C.

Work on `O=S(=O)(c1ccc(Cl)c(Cl)c1)n1ccc2c(N3CCNCC3)nc3ccccc3c21` (as salt: hydrochloride) yielded a melting point of 203 to 205 °C.

Compound `O=S(=O)(c1ccc(F)cc1)n1ccc2c(N3CCNCC3)nc3ccccc3c21` (as salt: hydrochloride) [Compound 22, 1-[(4-Fluorophenyl)sulfonyl]-4-(piperazin-1-yl)-1H-pyrrolo[3,2-c]quinoline dihydrochloride] has a melting point of 172 to 174 °C.

With `O=S(=O)(c1ccccc1)n1ccc2c(N3CCCNCC3)nc3ccccc3c21` [Compound 11, 4-(1,4-Diazepan-1-yl)-1-(phenylsulfonyl)-1H-pyrrolo[3,2-c]quinoline dihydrochloride] the antagonist effect (5-HT3R; 300 nM) was 53% and 53 (300 nM) %.

With `CN1CCN(c2nc3ccccc3c3c2ccn3S(=O)(=O)c2ccccc2)CC1` (as salt: hydrochloride) [Compound 6, 1-(Phenylsulfonyl)-4-(4-methylpiperazin-1-yl)-1H-pyrrolo[3,2-c]quinoline hydrochloride] the melting point was 127 to 129 °C.

In the case of `O=S(=O)(c1ccccc1)n1ccc2c(NC3CNC3)nc3ccccc3c21` [Compound 9, N-(Azetidin-3-yl)-1-(phenylsulfonyl)-1H-pyrrolo[3,2-c]quinolin-4-amine dihydrochloride], the antagonist effect (5-HT3R; 300 nM) is reported as 35% and 35 (300 nM) %.

Compound `O=S(=O)(c1cccc(C(F)(F)F)c1)n1ccc2c(N3CCNCC3)nc3ccccc3c21` (as salt: hydrochloride) [Compound 19, 1-{[3-(Trifluoromethyl)phenyl]sulfonyl}-4-(piperazin-1-yl)-1H-pyrrolo[3,2-c]quinoline dihydrochloride] has a melting point of 182 to 185 °C.

In the case of `CN1CCN(c2nc3ccccc3c3c2ccn3S(=O)(=O)c2ccccc2)CC1` [Compound 6, 1-(Phenylsulfonyl)-4-(4-methylpiperazin-1-yl)-1H-pyrrolo[3,2-c]quinoline hydrochloride], the antagonist effect (5-HT3R; 100 nM) is reported as 28%, the antagonist effect (5-HT3R; 300 nM) is reported as 48% and the “functional classification at 5-HT3R” value (5-HT3R) is reported as “antagonistic properties”.

`CC(C)c1ccc(S(=O)(=O)n2ccc3c(N4CCNCC4)nc4ccccc4c32)cc1` (as salt: hydrochloride) [Compound 24, 1-[(4-iso-Propylphenyl)sulfonyl]-4-(piperazin-1-yl)-1H-pyrrolo[3,2-c]quinoline dihydrochloride] gave a melting point of 212 to 214 °C.

Work on `O=S(=O)(c1cccc2ccccc12)n1ccc2c(N3CCNCC3)nc3ccccc3c21` (as salt: hydrochloride) yielded a melting point of 218 to 220 °C.

In the case of `O=S(=O)(c1cc(F)ccc1F)n1ccc2c(N3CCNCC3)nc3ccccc3c21` [Compound 27, 1-[(2,5-Difluorophenyl)sulfonyl]-4-(piperazin-1-yl)-1H-pyrrolo[3,2-c]quinoline dihydrochloride], the antagonist effect (5-HT3R; 300 nM) is reported as 32 (300 nM) %.

`O=S(=O)(c1ccccc1Br)n1ccc2c(N3CCNCC3)nc3ccccc3c21` (as salt: hydrochloride) [Compound 15, 1-[(2-Bromophenyl)sulfonyl]-4-(piperazin-1-yl)-1H-pyrrolo[3,2-c]quinoline dihydrochloride] gave a melting point of 158 to 160 °C.

For `Cc1cccc(S(=O)(=O)n2ccc3c(N4CCNCC4)nc4ccccc4c32)c1` (as salt: hydrochloride) [Compound 20, 1-[(3-Methylphenyl)sulfonyl]-4-(piperazin-1-yl)-1H-pyrrolo[3,2-c]quinoline dihydrochloride], the melting point was 179 to 181 °C.

With `CN1CCN(c2nc3ccccc3c3c2ccn3S(=O)(=O)c2cccc(F)c2)CC1` (as salt: hydrochloride) [Compound 12, 1-[(3-Fluorophenyl)sulfonyl]-4-(4-methylpiperazin-1-yl)-1H-pyrrolo[3,2-c]quinoline hydrochloride] the melting point was 176 to 177 °C.

In the case of `O=S(=O)(c1ccc(F)c(F)c1)n1ccc2c(N3CCNCC3)nc3ccccc3c21` (as salt: hydrochloride), the melting point is reported as 180 to 182 °C.

With `O=S(=O)(c1ccccc1)n1ccc2c(N[C@H]3CCNC3)nc3ccccc3c21` [Compound 8, (S)-1-(Phenylsulfonyl)-N-(pyrrolidin-3-yl)-1H-pyrrolo[3,2-c]quinolin-4-amine dihydrochloride] the antagonist effect (5-HT3R; 300 nM) was 32% and 32 (300 nM) %.

Work on `O=S(=O)(c1cc(F)ccc1F)n1ccc2c(N3CCNCC3)nc3ccccc3c21` (as salt: hydrochloride) [Compound 27, 1-[(2,5-Difluorophenyl)sulfonyl]-4-(piperazin-1-yl)-1H-pyrrolo[3,2-c]quinoline dihydrochloride] yielded a melting point of 204 to 206 °C.

Work on `O=S(=O)(c1ccccc1Cl)n1ccc2c(N3CCNCC3)nc3ccccc3c21` (as salt: hydrochloride) yielded a melting point of 157 to 159 °C.

`O=S(=O)(c1ccccc1)n1ccc2c(N[C@H]3CCNC3)nc3ccccc3c21` (as salt: hydrochloride) [Compound 8, (S)-1-(Phenylsulfonyl)-N-(pyrrolidin-3-yl)-1H-pyrrolo[3,2-c]quinolin-4-amine dihydrochloride] showed a melting point of 220 to 222 °C.

With `O=S(=O)(c1ccccc1)n1ccc2c(N3CCNCC3)nc3ccccc3c21` [Compound 7, 1-(Phenylsulfonyl)-4-(piperazin-1-yl)-1H-pyrrolo[3,2-c]quinoline dihydrochloride] the antagonist effect (5-HT3R; 100 nM) was 26%, the antagonist effect (5-HT3R; 300 nM) was 60% and the “functional classification at 5-HT3R” value (5-HT3R) was “antagonistic properties”.

In the case of `O=S(=O)(c1ccccc1)n1ccc2c(N3CCCNCC3)nc3ccccc3c21` (as salt: hydrochloride) [Compound 11, 4-(1,4-Diazepan-1-yl)-1-(phenylsulfonyl)-1H-pyrrolo[3,2-c]quinoline dihydrochloride], the melting point is reported as 247 to 248 °C.

Compound `COc1cccc(S(=O)(=O)n2ccc3c(N4CCNCC4)nc4ccccc4c32)c1` [Compound 21, 1-[(3-Methoxyphenyl)sulfonyl]-4-(piperazin-1-yl)-1H-pyrrolo[3,2-c]quinoline dihydrochloride] has an antagonist effect (5-HT3R; 100 nM) of 28% and an antagonist effect (5-HT3R; 300 nM) of 73%.

For `O=S(=O)(c1cccc(C(F)(F)F)c1)n1ccc2c(N3CCNCC3)nc3ccccc3c21` [Compound 19, 1-{[3-(Trifluoromethyl)phenyl]sulfonyl}-4-(piperazin-1-yl)-1H-pyrrolo[3,2-c]quinoline dihydrochloride], the antagonist effect (5-HT3R; 100 nM) was 21%, the antagonist effect (5-HT3R; 300 nM) was 37% and the “pD2′” value (5-HT3R; antagonist potency, guinea pig ileum) was 6.09.

In the case of `CN1CCN(c2nc3ccccc3c3c2ccn3S(=O)(=O)c2cccc(Cl)c2)CC1` [Compound 13, 1-[(3-Chlorophenyl)sulfonyl]-4-(4-methylpiperazin-1-yl)-1H-pyrrolo[3,2-c]quinoline hydrochloride], the antagonist effect (5-HT3R; 100 nM) is reported as 10% and the antagonist effect (5-HT3R; 300 nM) is reported as 44%.

With `CN1CCN(c2nc3ccccc3c3c2ccn3S(=O)(=O)c2cccc(F)c2)CC1` [Compound 12, 1-[(3-Fluorophenyl)sulfonyl]-4-(4-methylpiperazin-1-yl)-1H-pyrrolo[3,2-c]quinoline hydrochloride] the antagonist effect (5-HT3R; 30 nM) was 30% and the antagonist effect (5-HT3R; 100 nM) was 74%.

In the case of `CNC1CCN(c2nc3ccccc3c3c2ccn3S(=O)(=O)c2ccccc2)C1` (centres unmarked) [Compound 10, N-Methyl-1-(1-(phenylsulfonyl)-1H-pyrrolo[3,2-c]quinolin-4-yl)pyrrolidin-3-amine dihydrochloride], the antagonist effect (5-HT3R; 300 nM) is reported as 48% and 48 (300 nM) %.
